According to PMC10885137, “Site-Directed Mutagenesis of VvCYP76F14 (Cytochrome P450) Unveils Its Potential for Selection in Wine Grape Varieties Linked to the Development of Wine Bouquet” (Journal of Agricultural and Food Chemistry, 2024):
One block for each compound: values may come before it.

Columns and labels:
Conditions in all cases: 1 mM NADPH, ATR1 reductase, 100 mM Na/K phosphate pH 5.0, 26 °C, 1 h
[1] = target: VvCYP76F14 (from "L35", full-bodied) (Vitis vinifera, UniProt A0A1B2ZBX8, T188A, form not given)
Text: (§1) UPLC-MS/MS substrate depletion kinetics on VvCYP76F14 (from "L35", full-bodied)

[2] = target: VvCYP76F14 (from "L35", full-bodied) (Vitis vinifera, UniProt A0A1B2ZBX8, G304A, form not given)
Text: as §1

[3] = target: VvCYP76F14 (from "L35", full-bodied) (Vitis vinifera, UniProt A0A1B2ZBX8, S485A, form not given)
Text: as §1

[4] = target: VvCYP76F14 (from "L35", full-bodied) (Vitis vinifera, UniProt A0A1B2ZBX8, D306A, form not given)
Text: as §1

[5] = target: VvCYP76F14 (from "L35", full-bodied) (Vitis vinifera, UniProt A0A1B2ZBX8)
Text: as §1

[6] = target: VvCYP76F14 (from "L35", full-bodied) (Vitis vinifera, UniProt A0A1B2ZBX8, I120L, form not given)
Text: as §1

[7] = target: VvCYP76F14 (from "L35", full-bodied) (Vitis vinifera, UniProt A0A1B2ZBX8, F435A, form not given)
Text: as §1

[8] = target: VvCYP76F14 (from "L35", full-bodied) (Vitis vinifera, UniProt A0A1B2ZBX8, L298V, form not given)
Text: as §1

Sequence of VvCYP76F14 (from "L35", full-bodied) (Vitis vinifera, UniProt A0A1B2ZBX8, D306A, form not given) (A0A1B2ZBX8 entry or part of it D306A, form open): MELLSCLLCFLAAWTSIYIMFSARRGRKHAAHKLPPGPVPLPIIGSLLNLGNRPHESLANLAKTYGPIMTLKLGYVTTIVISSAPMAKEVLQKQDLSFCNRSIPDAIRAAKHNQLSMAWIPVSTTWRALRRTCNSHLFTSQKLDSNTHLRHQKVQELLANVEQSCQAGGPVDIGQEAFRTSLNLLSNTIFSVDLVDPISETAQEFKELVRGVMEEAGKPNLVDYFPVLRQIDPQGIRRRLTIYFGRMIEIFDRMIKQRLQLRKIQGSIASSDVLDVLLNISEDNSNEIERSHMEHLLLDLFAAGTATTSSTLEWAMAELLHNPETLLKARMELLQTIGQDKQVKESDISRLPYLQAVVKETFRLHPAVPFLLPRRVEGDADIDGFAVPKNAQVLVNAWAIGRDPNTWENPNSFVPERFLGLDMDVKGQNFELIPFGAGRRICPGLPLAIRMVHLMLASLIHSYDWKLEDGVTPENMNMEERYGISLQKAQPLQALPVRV
Sequence of VvCYP76F14 (from "L35", full-bodied) (Vitis vinifera, UniProt A0A1B2ZBX8, T188A, form not given) (A0A1B2ZBX8 entry or part of it T188A, form open): as the sequence (A0A1B2ZBX8 entry or part of it D306A, form open) above, with T188A, A306D counted along it
Sequence of VvCYP76F14 (from "L35", full-bodied) (Vitis vinifera, UniProt A0A1B2ZBX8) (A0A1B2ZBX8 entry or part of it): as the sequence (A0A1B2ZBX8 entry or part of it D306A, form open) above, with A306D counted along it
Sequence of VvCYP76F14 (from "L35", full-bodied) (Vitis vinifera, UniProt A0A1B2ZBX8, S485A, form not given) (A0A1B2ZBX8 entry or part of it S485A, form open): as the sequence (A0A1B2ZBX8 entry or part of it D306A, form open) above, with A306D, S485A counted along it
Sequence of VvCYP76F14 (from "L35", full-bodied) (Vitis vinifera, UniProt A0A1B2ZBX8, L298V, form not given) (A0A1B2ZBX8 entry or part of it L298V, form open): as the sequence (A0A1B2ZBX8 entry or part of it D306A, form open) above, with L298V, A306D counted along it
Sequence of VvCYP76F14 (from "L35", full-bodied) (Vitis vinifera, UniProt A0A1B2ZBX8, F435A, form not given) (A0A1B2ZBX8 entry or part of it F435A, form open): as the sequence (A0A1B2ZBX8 entry or part of it D306A, form open) above, with A306D, F435A counted along it
Sequence of VvCYP76F14 (from "L35", full-bodied) (Vitis vinifera, UniProt A0A1B2ZBX8, G304A, form not given) (A0A1B2ZBX8 entry or part of it G304A, form open): as the sequence (A0A1B2ZBX8 entry or part of it D306A, form open) above, with G304A, A306D counted along it
Sequence of VvCYP76F14 (from "L35", full-bodied) (Vitis vinifera, UniProt A0A1B2ZBX8, I120L, form not given) (A0A1B2ZBX8 entry or part of it I120L, form open): as the sequence (A0A1B2ZBX8 entry or part of it D306A, form open) above, with I120L, A306D counted along it

Km [1]: 77.4 ± 8.56 µM
Km [2]: 170 ± 13.6 µM
SMILES: C=CC(C)(O)CC/C=C(\C)CO (centres unmarked) [(E)-8-hydroxylinalool]

Km [3]: 172 ± 9.99 µM
Km [4]: 269 ± 17.7 µM
Km [5]: 41.4 ± 4.93 µM
SMILES: C=CC(C)(O)CC/C=C(\C)C=O (centres unmarked) [(E)-8-oxolinalool]

Km [6]: 156 ± 12.8 µM
Km [7]: 288 ± 19.3 µM
Km [8]: 74.7 ± 7.89 µM
SMILES: C=CC(C)(O)CCC=C(C)C (centres unmarked) [linalool]
